These results are taken from PMC10176470, “Engaging a Non-catalytic Cysteine Residue Drives Potent and Selective Inhibition of Caspase-6” (Journal of the American Chemical Society, 2023).

Holding throughout (format): cell-based
Assay [1] addresses proteins of HEK293T cells transiently overexpressing caspase-6 (Homo sapiens, UniProt P49321). The settings on record: exp_ref Probe; protein NASP (P49321); analysis C6.
In assay [2] the target is T1, proteins of HEK293T cells transiently overexpressing caspase-6 (Homo sapiens, UniProt P54136).
T1 sequence (P54136 1-660): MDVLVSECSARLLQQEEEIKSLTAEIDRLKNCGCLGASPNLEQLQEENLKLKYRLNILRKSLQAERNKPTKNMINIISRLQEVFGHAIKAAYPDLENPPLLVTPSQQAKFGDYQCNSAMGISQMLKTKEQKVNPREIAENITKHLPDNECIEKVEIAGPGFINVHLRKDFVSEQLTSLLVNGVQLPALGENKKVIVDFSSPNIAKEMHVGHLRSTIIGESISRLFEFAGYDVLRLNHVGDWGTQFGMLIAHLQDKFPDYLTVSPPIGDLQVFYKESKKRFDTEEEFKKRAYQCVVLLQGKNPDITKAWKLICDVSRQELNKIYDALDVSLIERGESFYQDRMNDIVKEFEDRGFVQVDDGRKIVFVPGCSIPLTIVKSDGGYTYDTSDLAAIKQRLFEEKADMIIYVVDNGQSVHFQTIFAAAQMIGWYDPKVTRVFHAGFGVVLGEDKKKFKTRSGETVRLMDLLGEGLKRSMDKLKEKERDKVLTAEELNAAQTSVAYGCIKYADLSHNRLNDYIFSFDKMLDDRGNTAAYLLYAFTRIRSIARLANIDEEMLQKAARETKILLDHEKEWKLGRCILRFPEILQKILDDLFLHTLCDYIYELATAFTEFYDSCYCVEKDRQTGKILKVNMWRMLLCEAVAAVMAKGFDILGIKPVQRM
The following applies: exp_ref Probe; protein RARS (P54136); analysis C6.

Assay [3] has as its target proteins of HEK293T cells transiently overexpressing caspase-6 (Homo sapiens, UniProt P17844). The following applies: exp_ref Probe; protein DDX5 (P17844); analysis C6.
In assay [4] the target is proteins of HEK293T cells transiently overexpressing caspase-6 (Homo sapiens, UniProt P29692). The following applies: exp_ref Probe; protein EEF1D (P29692); analysis C6.
Sequence of proteins of HEK293T cells transiently overexpressing caspase-6 (Homo sapiens, UniProt P29692) (P29692 whole entry): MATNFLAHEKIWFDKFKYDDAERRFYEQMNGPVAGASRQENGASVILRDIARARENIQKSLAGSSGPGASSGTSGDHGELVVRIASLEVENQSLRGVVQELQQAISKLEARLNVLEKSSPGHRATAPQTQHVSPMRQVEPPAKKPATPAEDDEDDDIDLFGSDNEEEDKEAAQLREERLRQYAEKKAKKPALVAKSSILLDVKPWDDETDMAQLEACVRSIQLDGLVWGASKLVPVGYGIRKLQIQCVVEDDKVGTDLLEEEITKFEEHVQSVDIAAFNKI
Assay [5] addresses proteins of HEK293T cells transiently overexpressing caspase-6 (Homo sapiens, UniProt P38919). The following applies: exp_ref Probe; protein EIF4A3 (P38919); analysis C6.
In assay [6] the target is proteins of HEK293T cells transiently overexpressing caspase-6 (Homo sapiens, UniProt P05141). The following applies: exp_ref Probe; protein SLC25A5 (P05141); analysis C6.
Sequence of proteins of HEK293T cells transiently overexpressing caspase-6 (Homo sapiens, UniProt P05141) (P05141 whole entry): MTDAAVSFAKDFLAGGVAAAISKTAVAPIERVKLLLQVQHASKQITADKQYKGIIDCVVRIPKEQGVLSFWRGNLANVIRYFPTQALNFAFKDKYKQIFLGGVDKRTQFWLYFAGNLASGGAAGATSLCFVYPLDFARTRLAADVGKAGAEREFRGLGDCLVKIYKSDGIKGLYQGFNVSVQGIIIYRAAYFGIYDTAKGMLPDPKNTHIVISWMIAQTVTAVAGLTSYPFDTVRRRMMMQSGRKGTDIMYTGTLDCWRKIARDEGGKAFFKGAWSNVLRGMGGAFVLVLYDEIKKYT
For assay [7], the target named is T2, proteins of HEK293T cells transiently overexpressing caspase-6 (Homo sapiens, UniProt P30048).
T2 sequence (P30048 62-256): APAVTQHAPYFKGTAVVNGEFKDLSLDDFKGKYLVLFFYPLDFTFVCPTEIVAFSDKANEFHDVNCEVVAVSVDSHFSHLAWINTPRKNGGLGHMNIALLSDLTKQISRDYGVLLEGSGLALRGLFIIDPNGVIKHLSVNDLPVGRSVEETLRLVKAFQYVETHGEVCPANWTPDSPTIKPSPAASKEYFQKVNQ

For assay [8], the target named is proteins of HEK293T cells transiently overexpressing caspase-6 (Homo sapiens, UniProt Q16658). The following applies: exp_ref Probe; protein FSCN1 (Q16658); analysis C6.
Assay [9] concerns the target proteins of HEK293T cells transiently overexpressing caspase-6 (Homo sapiens, UniProt O75533). The following applies: exp_ref Probe; protein SF3B1 (O75533); analysis C6.
For assay [10], the target named is proteins of HEK293T cells transiently overexpressing caspase-6 (Homo sapiens, UniProt P36578). The following applies: exp_ref Probe; protein RPL4 (P36578); analysis C6.
Assay [11] addresses proteins of HEK293T cells transiently overexpressing caspase-6 (Homo sapiens, UniProt P50991). The settings on record: exp_ref Probe; protein CCT4 (P50991); analysis C6.
The target of assay [12] is proteins of HEK293T cells transiently overexpressing caspase-6 (Homo sapiens, UniProt P12277). The following applies: protein CKB (P12277).
Sequence of proteins of HEK293T cells transiently overexpressing caspase-6 (Homo sapiens, UniProt P12277) (P12277 whole entry): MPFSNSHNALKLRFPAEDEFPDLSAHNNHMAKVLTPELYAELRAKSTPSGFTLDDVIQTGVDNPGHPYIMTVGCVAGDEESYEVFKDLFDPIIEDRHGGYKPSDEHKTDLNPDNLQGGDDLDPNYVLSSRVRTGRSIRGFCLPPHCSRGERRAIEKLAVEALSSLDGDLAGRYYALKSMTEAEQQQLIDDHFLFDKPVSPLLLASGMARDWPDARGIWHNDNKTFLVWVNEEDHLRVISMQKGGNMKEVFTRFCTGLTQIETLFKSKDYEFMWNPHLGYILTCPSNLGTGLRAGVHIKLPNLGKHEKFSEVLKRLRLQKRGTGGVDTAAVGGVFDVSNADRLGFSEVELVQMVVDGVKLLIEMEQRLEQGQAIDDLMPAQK
Assay [13] concerns the target proteins of HEK293T cells transiently overexpressing caspase-6 (Homo sapiens, UniProt P04183). The following applies: exp_ref Probe; protein TK1 (P04183); analysis C6.
For assay [14], the target named is proteins of HEK293T cells transiently overexpressing caspase-6 (Homo sapiens, UniProt Q06830). The following applies: exp_ref Probe; protein PRDX1 (Q06830); analysis C6.
Sequence of proteins of HEK293T cells transiently overexpressing caspase-6 (Homo sapiens, UniProt Q06830) (Q06830 whole entry): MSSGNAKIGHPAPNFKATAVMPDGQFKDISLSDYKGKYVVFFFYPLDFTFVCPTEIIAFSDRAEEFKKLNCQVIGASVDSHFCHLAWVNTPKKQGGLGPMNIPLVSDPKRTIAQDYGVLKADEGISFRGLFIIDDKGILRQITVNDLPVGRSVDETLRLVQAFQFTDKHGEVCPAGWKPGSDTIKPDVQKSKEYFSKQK
The target in assay [15] is proteins of HEK293T cells transiently overexpressing caspase-6 (Homo sapiens, UniProt Q14247). The following applies: exp_ref Probe; protein CTTN (Q14247); analysis C6.
Sequence of proteins of HEK293T cells transiently overexpressing caspase-6 (Homo sapiens, UniProt Q14247) (Q14247 whole entry): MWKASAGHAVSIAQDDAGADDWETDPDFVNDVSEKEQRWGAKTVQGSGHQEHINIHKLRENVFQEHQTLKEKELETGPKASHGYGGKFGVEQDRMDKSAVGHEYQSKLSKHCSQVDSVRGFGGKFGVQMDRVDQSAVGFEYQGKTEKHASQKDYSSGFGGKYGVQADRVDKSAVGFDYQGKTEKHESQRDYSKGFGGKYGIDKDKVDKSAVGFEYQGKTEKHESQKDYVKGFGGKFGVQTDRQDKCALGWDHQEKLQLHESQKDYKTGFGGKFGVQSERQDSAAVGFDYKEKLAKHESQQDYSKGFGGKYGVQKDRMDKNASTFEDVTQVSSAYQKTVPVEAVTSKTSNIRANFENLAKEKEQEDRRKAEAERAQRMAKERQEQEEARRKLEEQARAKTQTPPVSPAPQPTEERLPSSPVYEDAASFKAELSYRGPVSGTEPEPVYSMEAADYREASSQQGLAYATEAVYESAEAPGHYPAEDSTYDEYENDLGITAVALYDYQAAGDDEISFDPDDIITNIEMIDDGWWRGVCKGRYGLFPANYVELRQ
Assay [16] deals with proteins of HEK293T cells transiently overexpressing caspase-6 (Homo sapiens, UniProt P30153). The settings on record: exp_ref Probe; protein PPP2R1A (P30153); analysis C6.
Assay [17] concerns the target proteins of HEK293T cells transiently overexpressing caspase-6 (Homo sapiens, UniProt P62805).
Assay [18] has as its target proteins of HEK293T cells transiently overexpressing caspase-6 (Homo sapiens, UniProt P18621). The settings on record: exp_ref Probe; protein RPL17 (P18621); analysis C6.

Sequence of proteins of HEK293T cells transiently overexpressing caspase-6 (Homo sapiens, UniProt P04183) (P04183 whole entry): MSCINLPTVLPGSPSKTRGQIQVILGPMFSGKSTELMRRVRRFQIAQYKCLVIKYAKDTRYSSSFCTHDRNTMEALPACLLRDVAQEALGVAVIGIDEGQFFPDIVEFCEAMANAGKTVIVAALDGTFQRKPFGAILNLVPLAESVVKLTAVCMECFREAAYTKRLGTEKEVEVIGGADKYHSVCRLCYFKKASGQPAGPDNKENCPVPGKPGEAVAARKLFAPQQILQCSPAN
Sequence of proteins of HEK293T cells transiently overexpressing caspase-6 (Homo sapiens, UniProt O75533) (O75533 whole entry): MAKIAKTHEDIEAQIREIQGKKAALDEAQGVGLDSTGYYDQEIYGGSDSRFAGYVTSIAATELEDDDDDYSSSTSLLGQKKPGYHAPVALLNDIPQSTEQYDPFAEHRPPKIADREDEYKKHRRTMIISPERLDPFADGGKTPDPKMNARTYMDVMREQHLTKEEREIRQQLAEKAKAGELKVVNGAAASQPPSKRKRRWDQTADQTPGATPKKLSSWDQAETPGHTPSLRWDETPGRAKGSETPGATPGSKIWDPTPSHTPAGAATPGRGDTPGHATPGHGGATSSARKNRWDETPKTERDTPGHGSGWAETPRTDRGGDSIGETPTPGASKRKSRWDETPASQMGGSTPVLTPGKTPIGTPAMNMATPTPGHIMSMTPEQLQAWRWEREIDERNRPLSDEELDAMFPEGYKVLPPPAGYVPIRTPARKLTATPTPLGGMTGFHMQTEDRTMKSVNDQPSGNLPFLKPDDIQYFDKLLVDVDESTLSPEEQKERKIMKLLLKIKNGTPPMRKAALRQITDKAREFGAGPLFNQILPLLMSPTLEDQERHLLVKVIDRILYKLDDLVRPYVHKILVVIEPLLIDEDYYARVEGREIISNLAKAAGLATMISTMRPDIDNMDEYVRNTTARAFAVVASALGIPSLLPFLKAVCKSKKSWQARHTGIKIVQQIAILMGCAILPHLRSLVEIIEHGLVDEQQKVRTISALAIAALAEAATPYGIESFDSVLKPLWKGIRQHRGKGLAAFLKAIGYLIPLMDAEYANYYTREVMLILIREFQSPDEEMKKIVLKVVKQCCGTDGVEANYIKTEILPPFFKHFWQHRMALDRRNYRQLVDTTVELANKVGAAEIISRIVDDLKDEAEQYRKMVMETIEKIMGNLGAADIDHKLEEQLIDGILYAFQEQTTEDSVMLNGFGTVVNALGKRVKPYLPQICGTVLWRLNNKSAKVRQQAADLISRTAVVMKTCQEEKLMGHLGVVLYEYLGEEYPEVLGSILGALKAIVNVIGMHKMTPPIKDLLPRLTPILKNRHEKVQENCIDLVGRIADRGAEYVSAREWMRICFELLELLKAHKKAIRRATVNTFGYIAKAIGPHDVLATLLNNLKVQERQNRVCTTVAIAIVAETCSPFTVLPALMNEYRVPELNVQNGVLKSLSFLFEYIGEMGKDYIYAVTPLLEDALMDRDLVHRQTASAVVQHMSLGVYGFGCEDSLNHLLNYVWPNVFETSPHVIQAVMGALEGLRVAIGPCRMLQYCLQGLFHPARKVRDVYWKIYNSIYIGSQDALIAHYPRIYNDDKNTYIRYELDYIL
Sequence of proteins of HEK293T cells transiently overexpressing caspase-6 (Homo sapiens, UniProt P17844) (P17844 whole entry): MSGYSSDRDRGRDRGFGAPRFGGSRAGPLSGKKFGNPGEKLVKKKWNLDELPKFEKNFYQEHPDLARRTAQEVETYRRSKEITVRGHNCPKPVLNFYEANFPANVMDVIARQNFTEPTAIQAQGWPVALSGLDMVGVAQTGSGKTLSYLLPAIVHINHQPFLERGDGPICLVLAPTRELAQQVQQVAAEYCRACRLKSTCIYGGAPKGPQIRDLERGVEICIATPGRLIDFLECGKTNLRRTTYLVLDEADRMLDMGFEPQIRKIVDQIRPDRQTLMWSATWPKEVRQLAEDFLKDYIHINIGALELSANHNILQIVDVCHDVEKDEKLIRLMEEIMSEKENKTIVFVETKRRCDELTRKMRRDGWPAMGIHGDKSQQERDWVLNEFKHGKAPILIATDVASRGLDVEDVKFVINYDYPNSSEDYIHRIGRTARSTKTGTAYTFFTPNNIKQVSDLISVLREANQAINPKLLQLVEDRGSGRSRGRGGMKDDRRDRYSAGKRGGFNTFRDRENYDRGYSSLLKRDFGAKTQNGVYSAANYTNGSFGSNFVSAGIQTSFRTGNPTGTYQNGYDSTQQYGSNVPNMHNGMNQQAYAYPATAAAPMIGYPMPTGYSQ
Sequence of proteins of HEK293T cells transiently overexpressing caspase-6 (Homo sapiens, UniProt P50991) (P50991 whole entry): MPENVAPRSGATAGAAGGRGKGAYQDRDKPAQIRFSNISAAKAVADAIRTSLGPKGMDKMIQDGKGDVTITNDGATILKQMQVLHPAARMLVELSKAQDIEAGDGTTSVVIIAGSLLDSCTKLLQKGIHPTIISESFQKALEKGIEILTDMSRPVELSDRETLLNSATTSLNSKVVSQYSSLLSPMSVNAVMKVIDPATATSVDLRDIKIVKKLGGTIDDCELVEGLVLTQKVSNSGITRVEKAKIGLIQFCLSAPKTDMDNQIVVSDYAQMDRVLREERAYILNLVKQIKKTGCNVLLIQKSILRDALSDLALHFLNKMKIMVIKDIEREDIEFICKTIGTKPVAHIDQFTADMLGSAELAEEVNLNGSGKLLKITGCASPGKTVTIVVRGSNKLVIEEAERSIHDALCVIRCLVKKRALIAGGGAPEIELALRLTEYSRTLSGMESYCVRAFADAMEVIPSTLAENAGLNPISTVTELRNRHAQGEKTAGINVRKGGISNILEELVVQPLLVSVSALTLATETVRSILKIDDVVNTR
Sequence of proteins of HEK293T cells transiently overexpressing caspase-6 (Homo sapiens, UniProt P38919) (P38919 whole entry): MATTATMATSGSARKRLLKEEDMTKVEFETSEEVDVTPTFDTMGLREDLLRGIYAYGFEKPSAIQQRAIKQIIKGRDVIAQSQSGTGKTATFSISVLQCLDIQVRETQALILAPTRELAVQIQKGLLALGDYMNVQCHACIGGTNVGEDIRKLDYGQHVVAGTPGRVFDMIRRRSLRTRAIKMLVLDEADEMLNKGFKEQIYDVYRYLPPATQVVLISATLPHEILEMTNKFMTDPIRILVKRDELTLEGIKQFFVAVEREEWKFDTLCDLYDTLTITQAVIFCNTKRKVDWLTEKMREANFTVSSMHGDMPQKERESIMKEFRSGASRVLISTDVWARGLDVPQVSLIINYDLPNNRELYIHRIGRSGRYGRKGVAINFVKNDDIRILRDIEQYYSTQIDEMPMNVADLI

As to `C#CCOc1ccc([C@@H]2C[C@@H](C(=O)Nc3ccc(OC(F)(F)F)cc3)CN(S(=O)(=O)C=C)C2)cc1` (relative stereo) [13-t], the enrich.exp.med is on record as 0.1581 in [1]; 0.9191 in assay [2]; -0.0188 in assay [3]; 0.2193 in assay [4]; 0.7561 in [5]; 0.9373 in assay [6]. Also, the enrich.exp.med is -1.058 in assay [7] (Probe, protein PRDX3 P30048); 0.2175 in assay [8]; 0.3273 in [9]; 0.4261 in assay [10]; 0.3881 in assay [11]; 0.5567 in [12] (exp_ref Probe, analysis C6). Also, the enrich.exp.med is 1.0337 in assay [13]; -0.1545 in assay [14]; -0.3871 in assay [15]; 0.444 in assay [16]; -2.533 in assay [17] (Probe, protein HIST1H4A P62805); 0.5148 in assay [18]. Further, the enrich.exp.med.lin was found to be 0.4804 in [7] (protein PRDX3 (P30048)), 1.4709 in assay [12] and 0.1728 in [17] (protein HIST1H4A (P62805)). In addition, the enrich.exp.med.log2 in [7] (protein PRDX3 (P30048)) was -1.058; in assay [12], 0.5567; in [17] (protein HIST1H4A (P62805)) it was -2.533.
